# Experimental data from PMC4786809, “Determination of cyanidin 3-glucoside in rat brain, liver and kidneys by UPLC/MS-MS and its application to a short-term pharmacokinetic study” (Scientific Reports, 2016).
# What was measured:
# Assay type in all cases: in vivo, Wistar rats
# [1] = Brain concentrations and tissue pharmacokinetics after intravenous C3G
# Description: (§1) Twenty-two male Wistar rats (Rattus Norvegicus, Harlan Italy S.r.l.), of same age (15 weeks), 293–390 g of body weight, were used. The rats were randomly divided into 5 groups, according to the time that elapsed after intravenous administration of the test compound, and one control group. Each time point was represented by four biological replicates. All animals were allowed to acclimate to the animal facility of the University of Trieste for at least 2 week before studies were initiated. The experimental design was vetted and approved by the bioethical committee of the University of Trieste (internal code 140PAS14), according to the provisions of the European Community Council Directive 2010/63/EU[39]. The methods were carried out in accordance with the approved guidelines. The animals (n = 22) were maintained in cages in a room at 23 ± 2 °C, 50–60% humidity with a 12-hour light-dark cycle. The night before the experiment, food was withdrawn from the cages but water was given ad libitum. On the day of the experiment, the rats were anesthetized with intra-peritoneal administration of tiletamine/zolazepam (1:1, 25 mg/kg body weight) and xylazine (10 mg/kg body weight). During anaesthesia (10 min in all cases), the heart and ventilation rate were monitored. The rats were placed on their backs, with the ventral side up and with the legs spread separately on a thermo-isolated support. The penis was extruded by sliding the prepuce downwards. The dorsal penis vein was then seen along both sides of the penis and exactly 10 min after anaesthesia 0.2 mL PBS without (control group) or with (treated group) 668 nmol cyanidin 3-glucoside (C3G) in PBS was injected using a 24-G hypodermic needle. Then the injection site was pressed with a swab for a few seconds, and the glans was encouraged to retract to prevent further bleeding. One min before sacrificing the rats, sodium heparin (0.1 ml, 500 IU) was injected again into the dorsal penis vein, exposed in the same way. […] Blood draining and excision of the organs were carried out according to the literature. In detail, blood was collected from the neck of rats hold upside down, immediately after their decapitation, which happened at the time points sharp. Exsanguination took 5 seconds; laparotomy and excision of the liver and the kidneys took 5 more seconds. The post-decapitation procedures were standardised. Urine was collected through the urinary bladder with a syringe before decapitation. Kidneys, liver and brain were washed with mQ water, immediately frozen in liquid nitrogen and stored at −80 °C.
# (§2) Immediately after sampling, 5 mL of blood were transferred into ice-cold (−20 °C), deoxygenated aqueous 95% methanol in a ratio 1:9 (v/v). The urine was weighted and transferred into ice-cold, deoxygenated aqueous 95% methanol at a ratio of 1:9 (w/v). Frozen kidneys, liver and brain were grounded under cryogenic conditions (−196 °C) to 5 μm particles in a CryoMill (Retsch, Germany), using a single 25 mm i. d. steel ball (30 seconds, 25/sec frequency). The pulverized tissue was rapidly transferred (without thawing) into ice-cold, deoxygenated aqueous 95% methanol at a ratio of 1:9 (w/v). Cinnamic acid-d5, as internal standard, was dissolved in the aqueous methanol at concentration of 0.1 mg/L for the monitoring of the extraction protocol in biofluids and tissues.
# (§3) All samples were extracted with an orbital shaker for 10 min at room temperature. The methanol extracts were then centrifuged for 5 min at 3600 rpm at 4 °C, decanted under a stream of nitrogen in 50 mL dark glass vessels and stored at −80 °C. Clean-up of extracted samples in methanol was performed by solid phase extraction (SPE), as previously described. Briefly, 5 mL of extracted samples were evaporated on a rotary evaporator and reconstituted in 10 mL of acidified water. Anthocyanins were extracted by solid-phase adsorption onto a hydrophobic matrix (Sep-Pak C18, 0.35 g, Waters, Milford, MA). […]
# [2] = Kidney concentrations and tissue pharmacokinetics after intravenous C3G
# Description: as §1, §2, §3
# [3] = Urinary excretion after intravenous C3G
# Description: as §1, §2, §3
# [4] = Plasma concentrations and pharmacokinetics after intravenous bolus of C3G (NCA and two-compartment model); conditions: male, Wistar, rat, plasma, iv, mean ± SEM n=4
# Description: as §1, §2, §3
# [5] = Liver concentrations and tissue pharmacokinetics after intravenous C3G
# Description: as §1, §2, §3
# [6] = 0.25 min after i.v. 668 nmol C3G
compound,measurement,setting,value
"COc1cc(-c2[o+]c3cc(O)cc(O)c3cc2O[C@@H]2O[C@H](CO)[C@@H](O)[C@H](O)[C@H]2O)cc(O)c1O [PT3G, Petunidin-3-O-β-glucoside]",Mean concentration in brain,[1]; 2 min after i.v. 668 nmol C3G,1.15 ± 0.62 pmol/g
same,Mean concentration in brain,[1]; 5 min after i.v. 668 nmol C3G,1.01 ± 0.46 pmol/g
same,Mean concentration in brain,[1]; 15 min after i.v. 668 nmol C3G,2.45 ± 0.22 pmol/g
same,Mean concentration in brain,[1]; 20 min after i.v. 668 nmol C3G,1.90 ± 0.60 pmol/g
same,AUC0-t,"[1]; brain, i.v. 668 nmol C3G",32.42 pmol·min/g
same,Mean concentration in kidneys,[2]; [6],2.04 ± 0.59 pmol/g
same,Mean concentration in kidneys,[2]; 2 min after i.v. 668 nmol C3G,2.82 ± 0.28 pmol/g
same,Mean concentration in kidneys,[2]; 5 min after i.v. 668 nmol C3G,2.40 ± 0.13 pmol/g
same,Mean concentration in kidneys,[2]; 15 min after i.v. 668 nmol C3G,2.29 ± 0.07 pmol/g
same,Mean concentration in kidneys,[2]; 20 min after i.v. 668 nmol C3G,2.53 ± 0.26 pmol/g
same,MTTK (Mean Transit time in kidneys),[2]; kidneys,187.44 min
same,AUC0-t,"[2]; kidneys, unit per footnote *",48.13 ^* pmol g^–1 min^–1
same,half-life,"[2]; male, Wistar, rat, kidney, iv, 668 nmol, kidneys",2.25 h
same,Urine concentration,[3]; [6],4.58 ± 2.84 pmol/g
same,Urine concentration,[3]; 2 min after i.v. 668 nmol C3G,3.30 ± 1.59 pmol/g
same,concentration at 0.25 min,[4]; [6],2.2 ± 1.05 nM
same,concentration at 2 min,[4]; 2 min after i.v. 668 nmol C3G,4.95 ± 3.16 nM
same,concentration at 5 min,[4]; 5 min after i.v. 668 nmol C3G,1.71 ± 1.39 nM
same,Mean concentration in liver,"[5]; 0.25 min after i.v. 668 nmol C3G, mean ± SEM n=4",1.23 ± 0.59 pmol/g
same,Mean concentration in liver,[5]; 2 min after i.v. 668 nmol C3G,2.42 ± 0.08 pmol/g
same,Mean concentration in liver,[5]; 5 min after i.v. 668 nmol C3G,1.09 ± 0.52 pmol/g
same,Mean concentration in liver,[5]; 15 min after i.v. 668 nmol C3G,1.60 ± 0.44 pmol/g
same,Mean concentration in liver,[5]; 20 min after i.v. 668 nmol C3G,3.06 ± 0.19 pmol/g
same,AUC0-t,"[5]; liver, i.v. 668 nmol C3G",33.85 pmol·min/g
